According to US6677369B2, “Antithrombotic agents” (Eli Lilly and Company, priority 1997, dated 2004):
Counter-ions that a name gives are not always drawn.

SMILES | melting point [°C]
CC(C)(C)c1ccc(C(=O)Nc2ccccc2C(=O)Nc2cccc(C(=N)N)c2)cc1.Cl | 194 to 196
CC(C)(C)c1ccc(C(=O)Nc2ccccc2NC(=O)c2cccc(C(=N)N)c2)cc1.Cl | 196 to 198
CC(C)c1ccc(C(=O)Nc2ccccc2NC(=O)c2cccc(C(=N)N)c2)cc1.Cl | 227 to 229
COc1ccc(NC(=O)c2ccccc2NC(=O)c2cccc(C(=N)N)c2)cc1 (as salt: salt) [Example 12, 2-[3-(amino(imino)methyl)benzoylamino]-N-(4-methoxyphenyl)benzamide] | 163 to 167
CCOc1ccc(C(=O)Nc2ccccc2NC(=O)c2cccc(C(=N)N)c2)cc1 [Example 38, N^1-[3-(amino(imino)methyl)benzoyl]-N^2-(4-ethoxybenzoyl)-1,2-benzenediamine] | 163 to 165
